Assay type in all cases: cell-based, human
Test [1] relates to T84 cell monolayers. Description: Cytokine-induced apoptosis, immunoblotting of PARP, cleaved PARP, cleaved caspase-3. To be noted: 10 μM pretreatment 24 h, then IFNγ 50 ng/ml alone or with TNFα 10 ng/ml, 48 h. On the procedure:
FIG. 7: E-cadherin-enhancing drugs attenuate cytokine-induced cell death. Confluent T84 cell monolayers were pretreated with either vehicle, or ECU (10 μM) for 24 h. Afterwards, cells were exposed to either IFNγ (50 ng/ml) alone, or its combination with TNFα (10 ng/ml) with and without addition of ECU for additional 48h. Cell were lysed and levels of different apoptotic markers were determined by immunoblotting analysis.
(§1) To prepare total cell lysates, epithelial cell monolayers were scraped and homogenized using a Dounce homogenizer in RIPA buffer (20 mM Tris, 50 mM NaCl, 2 mM EDTA, 2 mM EGTA, 1% sodium deoxycholate, 1% Triton X-100 (TX-100), and 0.1% SDS, pH 7.4) containing protease inhibitor cocktail and phosphatase inhibitor cocktails 2 and 3 (Sigma-Aldrich). The obtained total cell lysates were cleared by centrifugation (20 min at 14,000×g), diluted with 2×SDS sample loading buffer and boiled. SDS-polyacrylamide gel electrophoresis was conducted using a standard protocol with equal amounts of total protein (10 or 20 μg) loaded per each lane. The separated proteins were transferred to nitrocellulose membranes and the membranes were blocked with 5% non-fat milk. […]
A general note: Immunoblotting shows a protein as a band on a membrane.

Test [2] deals with T84 cell monolayers. Description: Immunoblotting of signaling molecules after multiple wounding. To be noted: 10 μM pretreatment 24 h; lysates 12 and 24 h post-wounding. On the procedure:
Confluent T84 cell monolayers were pretreated with either vehicle, ECU (10 μM), or ML327 (10 μM), for 24 h, and were subjected to multiple wounding. Total cell lysates were collected at 12 and 24 h post-wounding, and the expression of different signaling molecules was determined by immunoblotting. Representative immunoblots (A) and densitometric quantification of protein band intensities from three independent experiments (B) are shown. Data are presented as a mean ±SE (n=3); *p<0.05; **p<0.01.
as §1

Test [3] deals with T84 cell monolayers. Put plainly: Cytokine (TNFα/IFNγ)-induced disruption of the epithelial barrier (TEER, FITC-dextran flux). The settings on record: 10 μM pretreatment 24 h, then TNFα 10 ng/ml + IFNγ 50 ng/ml, 48 h. On the procedure: Confluent T84 cell monolayers were pretreated with either vehicle, or ECU (10 μM) for 24 h. Afterwards, cells were exposed to a combination of TNFα (10 ng/ml) and IFNγ (50 ng/ml) with and without ECU. (A) TEER was measured at the indicated times. (B) FITC-dextran flux was examined after 48 h incubation with cytokines. Data is presented as mean ±SE (n=3); ***P<0.001.
Confluent T84 cell monolayers were pretreated with either vehicle, or ML327 (10 μM) for 24 hours. Afterwards, cells were exposed to a combination of TNFα (10 ng/ml) and IFNγ (50 ng/ml) with and without ML327. (A) TEER was measured at the indicated times. (B) FITC-dextran flux was examined after 48 h incubation with cytokines. Data is presented as mean ±SE (n=3); **P<0.05, ***P<0.001.
Transepithelial electrical resistance (TEER) of cultured T84, HT-29 and SK-C015 intestinal epithelial cell monolayers was measured using an EVOMX voltohmmeter (World Precision Instruments, Sarasota, Fla.). Cells were plated on collagen-coated transwell filters (pore size 3 μm, Thermo-Fisher). The resistance of cell-free collagen-coated filters was subtracted from each experimental point. An in vitro dextran flux assay was performed by a following commonly-used protocol. Intestinal epithelial cell monolayers growing on transwell filters were apically exposed to 1 mg/ml of FITC-labeled dextran (4,000 Da) in HEPES-buffered Hanks balanced salt solution (HBSS). After 120 min of incubation, HBSS samples were collected from the lower chamber, and FITC fluorescence intensity was measured using a Victor^3 V plate reader (Perkin Elmer, Waltham, Mass.) with excitation and emission wavelengths 485 and 544 nm, respectively. After subtracting the fluorescence of dextran-free HBSS the amount of FITC dextran translocated across the epithelial cell monolayer was calculated based on a calibration curve using Prism 5 software (GraphPad, La Jolla, Calif.).
A combination of two cytokines were selected: tumor necrosis factor alpha (TNFα, 10 ng/ml) and interferon-gamma (IFNγ, 50 ng/ml), which are known to compromise barrier integrity and trigger apical junction disassembly in cultured epithelial cell monolayers and intestinal mucosa in mice. Indeed, 48 hour incubation of well-differentiated T84 cell monolayers with TNFα and IFNγ caused a dramatic decrease in TEER (FIGS. 3A, 4A) and increase in transepithelial dextran flux (FIGS. 3B, 4B), which indicates the increase in barrier permeability. […] Next, it was examined if ECU protects epithelial adherens junctions (AJ) and tight junctions (TJ) from cytokine-induced disassembly. Immunofluorescence labeling of a specific AJ marker, E-cadherin, and a TJ marker, ZO-1, was used to visualize structure of different junctional complexes. […]

For test [4], the system named is T84 cell monolayers. Description: Wound healing assay. To be noted: 10 μM pretreatment 24 h, migration 24-48 hours. How it is done:
FIG. 8: E-cadherin-enhancing drug promote collective migration of intestinal epithelial cells. Confluent T84 cell monolayers were pretreated with either vehicle, ECU (10 μM) or ML327 (10 μM) for 24 hours. Afterwards, cell monolayers were wounded and allowed to migrate into wound area in the presence of the drugs. Cell monolayers were photographed and wound closure was calculated at the indicated times. Data is presented as mean ±SE (n=3); **P<0.05, ***P<0.01.
Confluent epithelial cell monolayers were mechanically wounded by making a thin scratch wound with a 200 μl pipette tip. The bottom of the well was marked to define the position of the wound and the monolayers were supplied with fresh cell culture medium. The images of a cell-free area at the marked region were acquired at the indicated times after wounding using an inverted bright field microscope equipped with a camera. The percentage of wound closure was calculated using an Image J software (NIH, Bethesda, Md.).
Finally, the effects of E-cadherin-enhancing drugs on epithelial restitution (wound healing) were examined. This is an important question given the fact that epithelial wounds are frequently formed in inflamed intestinal mucosa of IBD patients and wound healing is necessary to restore the integrity of the gut barrier and to achieve remission of chronic inflammatory diseases. […]

One compound from US20220008402A1, “INCREASED E-CADHERIN EXPRESSION OR ACTIVITY FOR THE TREATMENT OF INFLAMMATORY DISEASES” (The Cleveland Clinic Foundation, priority 2020, published 2022) can be followed below.

Molecules are shown by their SMILES. “Also recorded” adds a separate entry of the source.

For the compound `O=C(NCCCCc1ccncc1)c1cc(-c2ccco2)on1` [ECU], the “Cytokine-induced apoptosis (PARP cleavage, caspase-3 activation)” value with T84 cell monolayers [1] was “prevented cytokine-induced PARP cleavage and caspase-3 activation”. In addition, in the test with T84 cell monolayers [2], the “Expression of signaling molecules (pro-migratory signaling)” value is “activation of pro-migratory signaling events”. Besides, in the test with T84 cell monolayers [3], the “Cytokine-induced decrease in TEER” value is “prevents cytokine-induced disruption; also recorded: markedly attenuated” and the “Cytokine-induced increase in transepithelial FITC-dextran flux” value is recorded as “prevents cytokine-induced disruption; also recorded: markedly attenuated”. Also, in the test with T84 cell monolayers [4], the “Cell migration during wound healing (wound closure)” value is recorded as “significantly increased migration”.
